Results from ChEMBL document CHEMBL4483862, “Open-source discovery of chemical leads for next-generation chemoprotective antimalarials” (2018).

Tested on: Plasmodium berghei
Assay: Luciferase/luciferin-expressing antifolate-resistant parasites were used to infect a culture of HepG2 cells that were pre-incubated with compounds. Infected hepatocytes emit light due to the luciferase reaction. Assay results are presented as the percent inhibition of light emission compared to control. […]
Type: functional
Conditions: sporozoite; for IC90: read-out: LUCIFERASE INFECTION ASSAY - IC90

Row | Structure (SMILES) | IC90 | also measured
1 | CCNc1ccc(C(=O)Nc2ccc3nc(C)sc3c2)cc1[N+](=O)[O-] | > 10 µM | IC50 (HEPG2TOX_HILL_SLOPE 12, HEPG2TOX_R_SQUARED 0.881, PBLUC_HILL_SLOPE 13.1, PBLUC_R_SQUARED 0.554, read-out: LUCIFERASE INFECTION ASSAY - IC50): 8.97 µM
2 | CCn1c2ccccc2c2cc([N+](=O)[O-])ccc21 | > 13.7 µM | IC50 (HEPG2TOX_HILL_SLOPE 12, HEPG2TOX_R_SQUARED 0.261, PBLUC_HILL_SLOPE 16.8, PBLUC_R_SQUARED 0.0444, read-out: LUCIFERASE INFECTION ASSAY - IC50): 13.7 µM
3 | Cn1ncc2c(ON=C(N)c3ccc(C(C)(C)C)cc3)ncnc21 | 9.41 µM | IC50 (HEPG2TOX_HILL_SLOPE 12.1, HEPG2TOX_R_SQUARED 0.899, PBLUC_HILL_SLOPE 18.6, PBLUC_R_SQUARED 0.286, read-out: LUCIFERASE INFECTION ASSAY - IC50): 8.36 µM
4 | Oc1cccc2c(NC(S)=Nc3ccc(OC(F)F)cc3)cccc12 | 5.27 µM | IC50 (HEPG2TOX_HILL_SLOPE 12, HEPG2TOX_R_SQUARED 0.725, PBLUC_HILL_SLOPE 8.83, PBLUC_R_SQUARED 0.0853, read-out: LUCIFERASE INFECTION ASSAY - IC50): 4.11 µM
5 | Cc1ccc(C(C)C)c(OCCCNCCc2ccccc2)c1 | 9.99 µM | IC50 (HEPG2TOX_HILL_SLOPE 12.1, HEPG2TOX_R_SQUARED 0.387, PBLUC_HILL_SLOPE 24.3, PBLUC_R_SQUARED 0.56, read-out: LUCIFERASE INFECTION ASSAY - IC50): 9.13 µM
6 | O=C(Nc1nc2ccc(SC(F)F)cc2s1)c1ccc(Cl)nc1 | > 10 µM | IC50 (HEPG2TOX_HILL_SLOPE 12.1, HEPG2TOX_R_SQUARED 0.0104, read-out: LUCIFERASE INFECTION ASSAY - IC50): > 10 µM
7 | CS(=O)(=O)c1cccc(S(=O)(=O)Oc2ccc(C34CC5CC(CC(C5)C3)C4)cc2)c1 | > 10 µM | IC50 (HEPG2TOX_HILL_SLOPE 12.1, HEPG2TOX_R_SQUARED 0.709, PBLUC_HILL_SLOPE 2.69, PBLUC_R_SQUARED 0.465, read-out: LUCIFERASE INFECTION ASSAY - IC50): 4.49 µM
8 | CC(=O)c1ccc(-c2cnc(N)c(-c3cccc(N(C)C)c3)c2)s1 | 4.08 µM | IC50 (HEPG2TOX_HILL_SLOPE 12.1, HEPG2TOX_R_SQUARED 0.413, PBLUC_HILL_SLOPE 8.96, PBLUC_R_SQUARED 0.727, read-out: LUCIFERASE INFECTION ASSAY - IC50): 3.19 µM
9 | O=C(Nc1ccccc1)Nc1ccc(Cl)c(Cl)c1 | 9.61 µM | IC50 (HEPG2TOX_HILL_SLOPE 12, HEPG2TOX_R_SQUARED 0.666, PBLUC_HILL_SLOPE 4.82, PBLUC_R_SQUARED 0.734, read-out: LUCIFERASE INFECTION ASSAY - IC50): 6.09 µM
10 | O=C(Cn1ncc(Cl)c(Cl)c1=O)Nc1cc(S(=O)(=O)N2CCOCC2)ccc1Cl | 3.74 µM | IC50 (HEPG2TOX_HILL_SLOPE 12.1, HEPG2TOX_R_SQUARED 0.84, PBLUC_HILL_SLOPE 14, PBLUC_R_SQUARED 0.266, read-out: LUCIFERASE INFECTION ASSAY - IC50): 3.2 µM
11 | O=[N+]([O-])c1ccc(O)c(CNc2ncnc3sc4c(c23)CCCC4)c1 | 8.25 µM | IC50 (HEPG2TOX_HILL_SLOPE 12, HEPG2TOX_R_SQUARED 0.784, PBLUC_HILL_SLOPE 5.09, 13.1, PBLUC_R_SQUARED 0.860, 0.272, read-out: LUCIFERASE INFECTION ASSAY - IC50): 7.21 µM
12 | O=C(Nc1nonc1-c1ccc(F)cc1)c1sc2ccccc2c1Cl | 7.47 µM | IC50 (HEPG2TOX_HILL_SLOPE 12, HEPG2TOX_R_SQUARED 0.71, PBLUC_HILL_SLOPE 5.14, PBLUC_R_SQUARED 0.171, read-out: LUCIFERASE INFECTION ASSAY - IC50): 4.87 µM
13 | C=CCN(C(=O)/C(=C/c1ccccc1)n1nnnc1C)c1nc(-c2ccccc2)cs1 | 5.71 µM | IC50 (HEPG2TOX_HILL_SLOPE 12.1, HEPG2TOX_R_SQUARED 0.931, PBLUC_HILL_SLOPE 6.74, 7.08, PBLUC_R_SQUARED 0.881, 0.796, read-out: LUCIFERASE INFECTION ASSAY - IC50): 4.16 µM
14 | O=C(c1[nH]nc2ccccc12)N1CCN(CCOc2ccc(Cl)cc2)CC1 | > 10 µM | IC50 (HEPG2TOX_HILL_SLOPE 12.2, HEPG2TOX_R_SQUARED 0.374, PBLUC_HILL_SLOPE 13.5, 22.4, PBLUC_R_SQUARED 0.492, 0.389, read-out: LUCIFERASE INFECTION ASSAY - IC50): 9.12 µM
15 | N#C/C(=N\Nc1ccc(C(F)(F)F)cc1)S(=O)(=O)c1cccs1 | 8.89 µM | IC50 (HEPG2TOX_HILL_SLOPE 12.1, HEPG2TOX_R_SQUARED 0.95, PBLUC_HILL_SLOPE 4.11, PBLUC_R_SQUARED 0.238, read-out: LUCIFERASE INFECTION ASSAY - IC50): 5.21 µM
16 | CN(C)S(=O)(=O)c1cccc(NC(=O)c2nc(Cl)c(Cl)c(Cl)c2Cl)c1 | > 10 µM | IC50 (HEPG2TOX_HILL_SLOPE 12.2, HEPG2TOX_R_SQUARED 0.865, PBLUC_HILL_SLOPE 2.73, PBLUC_R_SQUARED 0.48, read-out: LUCIFERASE INFECTION ASSAY - IC50): > 10 µM

Row | Structure (SMILES) | IC90 | also measured
17 | Cc1ccc(NC(=O)/C(=C/c2cccc(F)c2)n2nnnc2C)cc1S(=O)(=O)N1CCCCCC1 | 4.24 µM | IC50 (HEPG2TOX_HILL_SLOPE 12.2, HEPG2TOX_R_SQUARED 0.863, PBLUC_HILL_SLOPE 25.1, PBLUC_R_SQUARED 0.833, read-out: LUCIFERASE INFECTION ASSAY - IC50): 3.89 µM
18 | CCC(C)CNc1cc(C(=O)Nc2cccc(OC)c2)cc(S(=O)(=O)N2CCCC2)c1 (configuration not stated) | > 7.41 µM | IC50 (HEPG2TOX_HILL_SLOPE 12.2, HEPG2TOX_R_SQUARED 0.774, PBLUC_HILL_SLOPE 2.54, PBLUC_R_SQUARED 0.165, read-out: LUCIFERASE INFECTION ASSAY - IC50): 5.57 µM
19 | CN1/C(=C\C=N\c2cc(Cl)c([N+](=O)[O-])cc2O)C(C)(C)c2ccccc21 | > 10 µM | IC50 (HEPG2TOX_HILL_SLOPE 12.2, 11.0, HEPG2TOX_R_SQUARED 0.457, 0.953, PBLUC_HILL_SLOPE 3.42, PBLUC_R_SQUARED 0.319, read-out: LUCIFERASE INFECTION ASSAY - IC50): 5.58 µM
20 | Clc1cccc(-c2cc3c(Nc4ccc5c(c4)OCCO5)nccc3[nH]2)c1 | > 10 µM | IC50 (HEPG2TOX_HILL_SLOPE 12.1, HEPG2TOX_R_SQUARED 0.71, PBLUC_HILL_SLOPE 1.15, PBLUC_R_SQUARED 0.766, read-out: LUCIFERASE INFECTION ASSAY - IC50): 1.75 µM
21 | Cc1csc(NC(=O)Nc2ccc(C(F)(F)F)cc2)c1Cl | 4.43 µM | IC50 (HEPG2TOX_HILL_SLOPE 12, HEPG2TOX_R_SQUARED 0.807, PBLUC_HILL_SLOPE 11.1, PBLUC_R_SQUARED 0.14, read-out: LUCIFERASE INFECTION ASSAY - IC50): 3.63 µM
22 | CCOc1ccccc1NC1=C(Cl)C(=O)c2ccccc2C1=O | 9.94 µM | IC50 (HEPG2TOX_HILL_SLOPE 12.2, HEPG2TOX_R_SQUARED 0.715, PBLUC_HILL_SLOPE 2.84, PBLUC_R_SQUARED 0.486, read-out: LUCIFERASE INFECTION ASSAY - IC50): 4.58 µM
23 | CN(C)C(=O)c1ccc(-c2cc3cnc(Nc4cccc(O)c4)cc3n2Cc2ccccc2)cc1 | 9.88 µM | IC50 (HEPG2TOX_HILL_SLOPE 12, HEPG2TOX_R_SQUARED 0.529, PBLUC_HILL_SLOPE 3.22, PBLUC_R_SQUARED 0.748, read-out: LUCIFERASE INFECTION ASSAY - IC50): 4.99 µM
24 | COc1cccc(N/N=C2\C=CC(=O)c3ncccc32)c1 | 3.47 µM | IC50 (HEPG2TOX_HILL_SLOPE 12.1, HEPG2TOX_R_SQUARED 0.589, PBLUC_HILL_SLOPE 8.94, PBLUC_R_SQUARED 0.612, read-out: LUCIFERASE INFECTION ASSAY - IC50): 2.71 µM
25 | CC(C)(C)OC(=O)Nc1ccc(C(=O)Nc2cccc(S(=O)(=O)NC3CC3)c2)cc1 | 3.66 µM | IC50 (HEPG2TOX_HILL_SLOPE 12, HEPG2TOX_R_SQUARED 0.663, PBLUC_HILL_SLOPE 19.5, PBLUC_R_SQUARED 0.101, read-out: LUCIFERASE INFECTION ASSAY - IC50): 3.27 µM
26 | C=C(C#N)CN1CCN(CC(=C)C#N)CC1 | 14.9 µM | IC50 (HEPG2TOX_HILL_SLOPE 11.9, HEPG2TOX_R_SQUARED 0.949, PBLUC_HILL_SLOPE 23.6, PBLUC_R_SQUARED 0.193, read-out: LUCIFERASE INFECTION ASSAY - IC50): 13.6 µM
27 | CN(C)c1ccc(-c2cc3c(Nc4ccc5c(c4)OCO5)nccc3n2C)cc1 | 3.98 µM | IC50 (HEPG2TOX_HILL_SLOPE 12.1, HEPG2TOX_R_SQUARED 0.137, PBLUC_HILL_SLOPE 13.7, PBLUC_R_SQUARED 0.564, read-out: LUCIFERASE INFECTION ASSAY - IC50): 3.39 µM
28 | COc1ccc(CCNC(=O)c2c(S)n(-c3ccc(C)cc3)c3cccc[n+]23)cc1 | 9.33 µM | IC50 (HEPG2TOX_HILL_SLOPE 12.1, HEPG2TOX_R_SQUARED 0.69, PBLUC_HILL_SLOPE 9.57, PBLUC_R_SQUARED 0.712, read-out: LUCIFERASE INFECTION ASSAY - IC50): 7.42 µM
29 | CNc1snc(C)c1C(=O)OCc1ccc(-n2cccn2)cc1 | 1.04 µM | IC50 (HEPG2TOX_HILL_SLOPE 12.1, HEPG2TOX_R_SQUARED 0.465, PBLUC_HILL_SLOPE 2.29, PBLUC_R_SQUARED 0.748, read-out: LUCIFERASE INFECTION ASSAY - IC50): 0.4 µM
30 | Cn1nc(-c2ccc(/C=N/NC(=O)c3ccc(Cl)cc3)s2)cc1C(F)(F)F | 3.23 µM | IC50 (HEPG2TOX_HILL_SLOPE 12, HEPG2TOX_R_SQUARED 0.148, PBLUC_HILL_SLOPE 12.7, PBLUC_R_SQUARED 0.63, read-out: LUCIFERASE INFECTION ASSAY - IC50): 2.72 µM
31 | O=C(CSc1ncc(C(F)(F)F)cc1C(F)(F)F)Nc1cc(Cl)cc(Cl)c1 | > 7.35 µM | IC50 (HEPG2TOX_HILL_SLOPE 12.1, HEPG2TOX_R_SQUARED 0.84, PBLUC_HILL_SLOPE 0.731, PBLUC_R_SQUARED 0.558, read-out: LUCIFERASE INFECTION ASSAY - IC50): 1.53 µM
